# Numbering of substitutions follows the chain as printed. “And” between values parts separate entries of the source, which are not always exact repeats. Equal entries are not always repeated. Where two headings read alike, the source gives them in different places.
# Legend:
# F666A mutant TRPV3 = target: T1, F666A mutant TRPV3 (Mus musculus, UniProt Q8K424, F666A); test: Fura-2 ratiometric Ca2+ measurement, activation by 2-APB; type: cell-based; conditions: for F340/F380 change normalized to approximated maximal value at saturating 2-APB: F666A
# T1 construct: expressed in transfected cells; host or cells: HEK 293 S GnTI- cells (baculovirus transduction)
# T1 sequence (Q8K424 1-791 F666A): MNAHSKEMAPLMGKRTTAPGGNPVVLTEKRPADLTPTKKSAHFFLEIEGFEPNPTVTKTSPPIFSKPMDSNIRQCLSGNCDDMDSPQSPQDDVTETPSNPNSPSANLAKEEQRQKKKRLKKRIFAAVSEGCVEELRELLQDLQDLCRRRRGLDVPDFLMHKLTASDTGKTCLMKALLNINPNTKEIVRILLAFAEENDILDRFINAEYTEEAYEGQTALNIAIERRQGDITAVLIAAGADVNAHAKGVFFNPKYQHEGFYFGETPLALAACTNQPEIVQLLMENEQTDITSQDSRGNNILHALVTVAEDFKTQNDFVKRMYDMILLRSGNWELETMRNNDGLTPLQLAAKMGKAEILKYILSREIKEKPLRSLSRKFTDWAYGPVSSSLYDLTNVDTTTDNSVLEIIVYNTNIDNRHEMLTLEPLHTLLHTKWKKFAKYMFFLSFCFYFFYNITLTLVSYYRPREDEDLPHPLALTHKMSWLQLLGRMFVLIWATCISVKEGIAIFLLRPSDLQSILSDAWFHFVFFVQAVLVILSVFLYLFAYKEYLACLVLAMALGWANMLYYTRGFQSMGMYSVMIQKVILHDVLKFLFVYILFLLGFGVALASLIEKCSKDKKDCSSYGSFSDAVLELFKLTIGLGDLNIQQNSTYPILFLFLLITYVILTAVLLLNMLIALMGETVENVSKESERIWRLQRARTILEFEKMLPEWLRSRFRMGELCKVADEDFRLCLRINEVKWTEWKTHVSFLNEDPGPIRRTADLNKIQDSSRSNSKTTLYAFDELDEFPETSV
# Method: GFP-free C-terminally strep-tagged wild-type TRPV3, TRPV3-Y564A, TRPV3-Y594A, TRPV3-F633A, TRPV3-I663W, and TRPV3-F666A were expressed in HEK 293 S GnTI^− cells as previously described[41],[42],[53]. In short, 48 h after transduction, 1-ml aliquots of cell suspension were collected by centrifugation at 550 g for 5 min using an Eppendorf 5424 centrifuge. The cells were resuspended in the pre-warmed modified HEPES-buffered saline (HBS) containing 118 mM NaCl, 4.8 mM KCl, 1 mM MgCl2, 5 mM D-glucose, and 10 mM HEPES pH 7.4 and 5 μg/ml Fura-2 AM (Thermo Fisher Scientific) and incubated for 45 min at 37 °C. The Fura-2-loaded cells were then centrifuged for 5 min at 550 g, resuspended in the pre-warmed, modified HBS and incubated again for 30 min at 37 °C in the dark. The cells were subsequently pelleted and washed twice in the modified HBS. The washed cell pellets were kept on ice in the dark before taking an aliquot for fluorescence measurements. […] We used the lower CaCl2 concentration than before[42],[28] (2.5 mM) to minimize non-specific effects, which often appeared as a drift in the Fura-2 signal at high Ca^2+ concentration, presumably due to cell death as a result of calcium overload. Fluorescence measurements were conducted using a QuantaMaster 40 spectrofluorometer (Photon Technology International) at room temperature in a quartz cuvette under constant stirring. After 60 s since the beginning, the recording was paused and 2-APB was added. After the addition of 2-APB, the recording was continued for the additional 140 s. Changes in intracellular Ca^2+ were measured by taking the ratio of fluorescence emitted at 510 nm at the excitation wavelength of 340 nm and 380 nm. […] The data were processed using Origin 9.0 (OriginLab) software.
# TRPV3-Y594A = target: T2, TRPV3-Y594A (Mus musculus, UniProt Q8K424, Y594A); test: Fura-2 ratiometric Ca2+ measurement, control application of 2-APB; type: cell-based
# T2 construct: expressed in transfected cells; host or cells: HEK 293 S GnTI- cells (baculovirus transduction)
# T2 sequence (Q8K424 1-791 Y594A): T1 sequence (Q8K424 1-791 F666A) with Y594A, A666F
# From the text: The portal site in TRPV3 has not been previously shown to bind small-molecule inhibitors. This site, however, was originally proposed to be an entry pathway for local anesthetics to the pore of sodium channels[47]–[49] and found to accommodate cannabidiol in TRPV2, a closely-related representative of the vanilloid subfamily of TRP channels. […] We concluded that the Y594A mutation altered gating properties of TRPV3 and excluded this mutant from further analysis.
# GFP-free C-terminally strep-tagged wild-type TRPV3, TRPV3-Y564A, TRPV3-Y594A, TRPV3-F633A, TRPV3-I663W, and TRPV3-F666A were expressed in HEK 293 S GnTI^− cells as previously described[41],[42],[53]. In short, 48 h after transduction, 1-ml aliquots of cell suspension were collected by centrifugation at 550 g for 5 min using an Eppendorf 5424 centrifuge. […] The washed cell pellets were kept on ice in the dark before taking an aliquot for fluorescence measurements. […] Fluorescence measurements were conducted using a QuantaMaster 40 spectrofluorometer (Photon Technology International) at room temperature in a quartz cuvette under constant stirring. […] Changes in intracellular Ca^2+ were measured by taking the ratio of fluorescence emitted at 510 nm at the excitation wavelength of 340 nm and 380 nm. […]
# wild-type TRPV3 = conditions: cited from earlier work; for F340/F380 change normalized to approximated maximal value at saturating 2-APB: WT, published before
structure (smiles),measurement,setting,value
NCCOB(c1ccccc1)c1ccccc1 [2-APB],F340/F380 change normalized to approximated maximal value at saturating 2-APB,"F666A mutant TRPV3; 2-APB Conc 0.1, single experiments",0.01591 and 0.01218 and 0.01441
same,F340/F380 change normalized to approximated maximal value at saturating 2-APB,"F666A mutant TRPV3; 2-APB Conc 0.3, single experiments",0.0415 and 0.03827 and 0.03455
same,F340/F380 change normalized to approximated maximal value at saturating 2-APB,"F666A mutant TRPV3; 2-APB Conc 1, single experiments",0.08549 and 0.07903 and 0.08027
same,F340/F380 change normalized to approximated maximal value at saturating 2-APB,"F666A mutant TRPV3; 2-APB Conc 3, single experiments",0.1735 and 0.1693 and 0.1578
same,F340/F380 change normalized to approximated maximal value at saturating 2-APB,"F666A mutant TRPV3; 2-APB Conc 10, single experiments",0.3611 and 0.3532 and 0.3454
same,F340/F380 change normalized to approximated maximal value at saturating 2-APB,"F666A mutant TRPV3; 2-APB Conc 30, single experiments",0.6328 and 0.6126 and 0.5903
same,F340/F380 change normalized to approximated maximal value at saturating 2-APB,"F666A mutant TRPV3; 2-APB Conc 100, single experiments",0.7746 and 0.7881 and 0.7839
same,F340/F380 change normalized to approximated maximal value at saturating 2-APB,"F666A mutant TRPV3; 2-APB Conc 300, single experiments",0.7811 and 0.756 and 0.8326
same,"nHill of activation curve, F666A",F666A mutant TRPV3; n = 3,0.80 ± 0.02
same,EC50,"F666A mutant TRPV3; n = 3, read-out: EC50, 2-APB-induced activation of F666A",20.7 ± 0.9 µM
same,"change in F340/F380 on control application of 2-APB, Y594A",TRPV3-Y594A,barely detectable changes
same,F340/F380 change normalized to approximated maximal value at saturating 2-APB,"wild-type TRPV3; 2-APB Conc 3.2, single experiments",0.1142 and 0.08511 and 0.06324 and 0.1042
same,F340/F380 change normalized to approximated maximal value at saturating 2-APB,"wild-type TRPV3; 2-APB Conc 102.4, single experiments",0.8797 and 0.5873 and 0.8594 and 0.9531
same,F340/F380 change normalized to approximated maximal value at saturating 2-APB,"wild-type TRPV3; 2-APB Conc 204.8, single experiments",0.97 and 1 and 0.6572 and 1.041
same,"nHill of activation curve, wild-type TRPV3","wild-type TRPV3; n = 4, published before",1.19 ± 0.09
same,EC50,"wild-type TRPV3; n = 4, published before, read-out: EC50, 2-APB-induced activation of wild-type TRPV3",27.4 ± 4.5 µM
